Consider one compound from patent US7279497B2, “Benzopyran derivatives substituted with secondary amines including imidazole, their preparation and pharmaceutical compositions containing them” (Korea Research Institute of Chemical Technology, priority 2002, dated 2007).

One data set deals with SPF SD rats. The conditions noted are these: rat, in vivo, po.
The next data set concerns rat brain homogenate. The data set is described as follows: Inhibitory activity against iron-induced lipid peroxidation (MDA). The data set is classed as biochemical. The conditions noted are these: 30 μM, FeCl2 400 μm. How it is done: In order to examine whether the compounds of the formula 1 suppress the iron-induced lipid peroxidation, experiments were conducted as follows.
The rat brain was homogenized in a Krebs buffer (15 mM HEPES, 10 mM glucose, 140 mM NaCl, 3.6 mM KCl, 1.5 mM CaCl2, 1.4 mM KH2PO4, 0.7 mM MgCl2, pH 7.4) and the supernatant separated by centrifugation at 12,000 rpm for 10 min was used for further experiments. FeCl2 was added to a final concentration of 400 μm in the brain homogenate which was then allowed to stand at 37° C. for 30 min. for the facilitation of oxidation. Each of the test compounds was added at a concentration of 30 μM and vehicle was used as a control.
Iron facilitates the oxidation of the brain homogenate to produce malondialdehyde (MDA), a lipid peroxidation product. Thus, the lipid peroxidation was determined by MDA quantification. The inhibitory effect of the test compounds against the lipid peroxidation was evaluated by calculating MDA reduction rate of the test compounds compared with that of the control group.
Typically, the MDA quantification is achieved by reacting samples with 2-thiobarbituric acid (TBA) and measuring the absorbance at 530 nm. However, this method is unsuitable to treat samples on a large scale because of a boiling step. Thus, in this experiment, N-methyl-2-phenylindole was used instead of TBA. […] Bioxytech^R LPO-586 Kit was used for MDA quantification.

Data set [1] deals with HUVECs (Human umbilical vein endothelial cells). The data set is described as follows: Inhibitory effects on HUVEC tube formation.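 Also: from minus no inhibition up to plus-plus-plus complete inhibition versus vehicle.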 The data set is classed as cell-based. An outline of the steps: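 HUVECs within passage 5 were plated on bFGF-reduced polymerized Matrigel and incubated with or without compound. Tube formation assessed as changes in cell morphology by phase-contrast microscopy and photography.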

Regarding `COC(OC)[C@@]1(C)Oc2ccc(N)cc2[C@@H](N(Cc2ncc[nH]2)c2ccc(C(F)(F)F)cc2)[C@@H]1O` [Example 25, (2S,3S,4R)-6-amino-3,4-dihydro-2-dimethoxymethyl-3-hydroxy-2-methyl-4-[N-(4-trifluoromethylphenyl)-N-(1H-imidazol-2-ylmethyl)amino]-2H-1-benzopyran], in the data set with SPF SD rats, the “clinical symptoms, body weight and mortality” value is “no significant changes”. The “% Inhibition of lipid peroxidation by iron” value in the data set on rat brain homogenate is 97%. Moreover, the Tube formation entry in data set [1] (10 μM) and in data set [1] (100 μM) was “+/−” in each case.
